Literature values in patent US8168657B2, “Solenopsin A, B and analogs and as novel angiogenesis inhibitors” (priority 2002, dated 2012).

Experiments:
[1] = as much as 6000 units used over a shorter time period
[2] = system: blood and tissue- and fluid-feeding parasites

CCCCCCCCCCC[C@H]1CCC[C@H](C)N1 (relative stereo) [Solenopsin A, trans-2-methyl 6-n-undecylpiperidine]
ill effects [1]: did not cause any ill effects
units equivalent to 250 units of the whole body extracts ([2]; synthetic version versus whole body extract, effective treatment): 1500 units
elimination of blood and tissue- and fluid-feeding parasites ([2]; synthetically produced Solenopsin A): complete elimination
